In publication PMC12666239 (Chembiochem, 2025):
Values joined by “and” are separate entries in the source; they are usually repeats but may differ in a detail not shown here. Equal values may be shown once. “Also recorded” adds a separate entry of the source.

Legend:
[1] = tested on: Nsp3b; conditions: cited from earlier work
[2] = biological target: T1, MERS-CoV macrodomain (Middle East respiratory syndrome-related coronavirus, UniProt K9N7C7); format: biochemical
[3] = biological target: Nsp3b (SARS-CoV-2 macrodomain) (Severe acute respiratory syndrome coronavirus 2, UniProt P0DTD1); assay: biochemical; format: binding
[4] = biological target: T2, Nsp3b (Severe acute respiratory syndrome coronavirus 2, UniProt P0DTD1); format: binding, SARS-CoV-2
[5] = biological target: SARS-CoV macrodomain (Severe acute respiratory syndrome coronavirus, UniProt P0C6X7); assay: biochemical; format: binding
[6] = biological target: T1, MERS-CoV macrodomain; assay: biochemical; format: binding
[7] = biological target: Rubella virus (RuV) macrodomain (Rubella virus, UniProt Q86500); format: binding
[8] = biological target: T3, CHIKV macrodomain (Chikungunya virus, UniProt Q8JUX6); format: binding
[9] = biological target: hMacroD2 (Homo sapiens, UniProt A1Z1Q3); format: binding
[10] = biological target: T2, Nsp3b; format: biochemical, SARS-CoV-2
[11] = tested on: SARS-CoV-2 B.1; assay: microbe, parasite or virus in culture; format: cell-based; conditions: for EC50: Severe acute respiratory syndrome coronavirus 2, VeroE6/TMPRSS2, 48 h
[12] = tested on: CHIKV (OPY1); assay: microbe, parasite or virus in culture; format: cell-based; conditions: Chikungunya virus, Vero C1008, 48 h
[13] = physchem
[14] = in vitro; conditions: African green monkey
[15] = in vitro; conditions: African green monkey; remark: listed apart in the source
[16] = biological target: T3, CHIKV macrodomain; conditions: cited from earlier work

T3 sequence (Q8JUX6 1334-1493 limits assumed): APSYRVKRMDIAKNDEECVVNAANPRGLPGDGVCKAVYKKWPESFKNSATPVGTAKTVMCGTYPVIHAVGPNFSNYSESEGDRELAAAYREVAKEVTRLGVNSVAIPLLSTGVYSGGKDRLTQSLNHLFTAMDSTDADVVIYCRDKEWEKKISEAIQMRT
T1 sequence (K9N7C7 1110-1276 limits assumed): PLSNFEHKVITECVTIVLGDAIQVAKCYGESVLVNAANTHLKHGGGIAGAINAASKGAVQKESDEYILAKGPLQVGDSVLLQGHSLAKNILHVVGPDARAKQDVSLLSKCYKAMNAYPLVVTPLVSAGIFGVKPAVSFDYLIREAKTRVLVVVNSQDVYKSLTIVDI
hMacroD2, sequence (A1Z1Q3 7-243): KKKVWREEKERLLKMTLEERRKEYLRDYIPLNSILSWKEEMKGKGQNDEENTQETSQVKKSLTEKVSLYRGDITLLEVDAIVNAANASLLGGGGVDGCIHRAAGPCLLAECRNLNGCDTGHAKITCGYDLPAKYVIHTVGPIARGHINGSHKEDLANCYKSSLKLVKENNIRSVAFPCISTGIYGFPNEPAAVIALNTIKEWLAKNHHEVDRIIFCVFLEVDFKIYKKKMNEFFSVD
Rubella virus (RuV) macrodomain, sequence (Q86500 806-985 limits assumed): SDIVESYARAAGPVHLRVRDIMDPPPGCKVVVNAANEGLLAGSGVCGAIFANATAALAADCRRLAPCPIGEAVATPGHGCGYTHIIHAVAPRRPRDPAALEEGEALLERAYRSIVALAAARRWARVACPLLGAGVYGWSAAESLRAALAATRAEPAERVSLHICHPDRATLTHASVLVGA

Compound: β‐O‐methyl‐ADPr
- IC50 [1]: 127 µM

Compound: ADP‐ribose [ADPr, reference compound]
- reduction of the k value versus free macrodomain [2]: 32% and ≈ 32%

Compound: Nc1ncnc2c1ncn2[C@@H]1O[C@H](COP(=O)(O)O)[C@@H](O)[C@H]1O [AMP]
- Kd [3]: 1900 to 2500 µM

Compound: N#C[C@@]1(c2ccc3c(N)ncnn23)O[C@H](COS(N)(=O)=O)[C@@H](O)[C@H]1O [compound 3]
- ΔG [4]: −8.28 kcal mol^–1
- ΔH [4]: −12.00 ± 0.07 and −12.00 kcal mol^–1 and −12.00 and −12.0 ± 0.07 kcal mol^–1
- ΔH compared to GS-441524 [4]: –6.75 kcal mol^−1
- −TΔS [4]: 3.71 kcal mol^–1
- ΔG [5]: −7.52 kcal mol^–1
- ΔH [5]: −12.5 ± 0.3 kcal mol^–1
- −TΔS [5]: 4.96 kcal mol^–1
- Kd ([5]; K D): 3 µM and 3.08 µM
- Kd [6]: 104 ± 13 µM
- ΔG [6]: −5.43 kcal mol^–1
- interaction by ITC [7]: no interaction was observed
- interaction by ITC [8]: no interaction was observed
- interaction by ITC [9]: no interaction was observed; also recorded: no binding was observed
- reduction of the k value versus free macrodomain [10]: 47%
- reduction of the k value versus free macrodomain [2]: 16% and ≈ 16%
- inhibition of SARS-CoV-2 [11]: no measurable inhibition
- EC50 [11]: > 40 µM
- EC50 [12]: 21.8 µM
- pKa [13]: 9.37 ± 0.02
- CC50 [14]: > 40 µM
- CC50 [15]: > 40 µM

Compound: N#C[C@@]1(c2ccc3c(N)ncnn23)O[C@H](CO)[C@@H](O)[C@H]1O [GS‐441524]
- reduction of the k value versus free macrodomain [10]: 33%
- interaction with CHIKV macrodomain [16]: no significant interaction; also recorded: does not bind detectably

Compound: N#C[C@@]1(c2ccc3c(N)ncnn23)O[C@H](COP(=O)(O)O)[C@@H](O)[C@H]1O [RMP]
- Kd [3]: ~10 µM

Compound: α‐azido‐ADPr
- IC50 [1]: 0.49 µM

Compound: Nc1ncnc2c1ncn2[C@@H]1O[C@H](COP(=O)(O)OP(=O)(O)O)[C@@H](O)[C@H]1O [ADP]
- Kd [3]: > 10000 µM

Compound: Nc1ncnc2c1ncn2[C@@H]1O[C@H](COP(=O)(O)OP(=O)(O)NP(=O)(O)O)[C@@H](O)[C@H]1O [APPNHP]
- Kd [3]: 1900 to 2500 µM

Compound: CCC(CC)COC(=O)[C@H](C)N[P@](=O)(OC[C@H]1O[C@@](C#N)(c2ccc3c(N)ncnn23)[C@H](O)[C@@H]1O)Oc1ccccc1 [remdesivir, reference compound]
- EC50 [11]: 5.48 µM

Compound: Nc1ncnc2c1ncn2[C@@H]1O[C@H](COP(=O)(O)OP(=O)(O)OP(=O)(O)O)[C@@H](O)[C@H]1O [ATP]
- Kd [3]: 1900 to 2500 µM

Compound: NC(=O)c1nc(F)c[nH]c1=O [Favipiravir, reference compound]
- EC50 [12]: 11.3 µM
